Assay results as given in PMC4995024, “Ligand Binding at the α4-α4 Agonist-Binding Site of the α4β2 nAChR Triggers Receptor Activation through a Pre-Activated Conformational State” (PLoS ONE, 2016).
Several values for one entry are separate records, joined by “and”; a condition that tells them apart may be missing. Equal values may be shown once. Entries after “also recorded” stand apart in the source; their conditions may differ. Read-outs that look alike come from different tables or passages of the source. Marks after values point to notes of the source that are not given here.

Legend:
[1] = target: T1, 3α4:2β2 nAChR (Homo sapiens, UniProt P17787+P43681); design: expressed in transfected cells; host or cells: Xenopus laevis oocytes injected with cRNA (α4:β2 ratio 4:1); method as in PMID 16720757, PMID 21795528; details: 3α4:2β2 stoichiometry; cited from earlier work
T1 sequence (P43681 29-627 limits assumed): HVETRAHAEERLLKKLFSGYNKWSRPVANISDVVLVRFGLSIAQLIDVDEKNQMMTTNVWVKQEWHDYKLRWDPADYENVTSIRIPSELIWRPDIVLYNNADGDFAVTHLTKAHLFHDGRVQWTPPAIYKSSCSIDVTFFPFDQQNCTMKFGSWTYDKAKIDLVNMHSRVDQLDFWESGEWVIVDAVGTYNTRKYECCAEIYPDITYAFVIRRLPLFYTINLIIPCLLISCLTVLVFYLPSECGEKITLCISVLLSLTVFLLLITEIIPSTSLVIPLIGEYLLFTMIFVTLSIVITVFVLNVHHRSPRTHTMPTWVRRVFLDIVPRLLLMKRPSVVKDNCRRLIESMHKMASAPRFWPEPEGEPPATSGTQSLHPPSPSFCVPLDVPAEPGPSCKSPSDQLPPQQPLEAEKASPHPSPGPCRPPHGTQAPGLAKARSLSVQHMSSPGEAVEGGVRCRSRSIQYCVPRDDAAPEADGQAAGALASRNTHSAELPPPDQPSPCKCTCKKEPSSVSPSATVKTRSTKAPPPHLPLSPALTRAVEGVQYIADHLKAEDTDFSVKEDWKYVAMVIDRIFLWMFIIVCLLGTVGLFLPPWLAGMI
T1 sequence (P17787 26-502): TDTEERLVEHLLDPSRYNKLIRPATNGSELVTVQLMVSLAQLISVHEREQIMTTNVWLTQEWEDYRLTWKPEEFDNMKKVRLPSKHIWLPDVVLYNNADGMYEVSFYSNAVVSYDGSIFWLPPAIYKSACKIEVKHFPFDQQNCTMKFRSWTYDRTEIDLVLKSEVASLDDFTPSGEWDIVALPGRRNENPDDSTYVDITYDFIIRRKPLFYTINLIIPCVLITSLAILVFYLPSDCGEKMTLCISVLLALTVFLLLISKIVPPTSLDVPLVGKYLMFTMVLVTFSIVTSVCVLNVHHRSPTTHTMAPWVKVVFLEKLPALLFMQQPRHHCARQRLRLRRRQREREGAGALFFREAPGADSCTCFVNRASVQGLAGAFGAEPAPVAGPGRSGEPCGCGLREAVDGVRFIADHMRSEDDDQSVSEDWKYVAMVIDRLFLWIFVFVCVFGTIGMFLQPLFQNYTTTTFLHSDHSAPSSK

[2] = target: T1, 3α4:2β2 nAChR; experiment: Two-electrode voltage-clamp electrophysiology in Xenopus oocytes, WT 3α4:2β2 receptor; type: cell-based; design: expressed in transfected cells; host or cells: Xenopus laevis oocytes injected with cRNA (α4:β2 ratio 4:1); details: for Est Pomax: normalized to 1 mM ACh + NS206 (10 μM); for Decrease of EC50 value by co-application of NS9283 / Increase of maximum response by co-application of NS9283: 3α4:2β2, NS9283 10 μM; for Agonist type: 3α4:2β2, relative to saturating ACh (1 mM)
Description: (§1) cDNA encoding human nAChR α4 and β2 subunits were cloned, and cRNA was prepared as previously described. A triple-point-mutated β2^m subunit with the mutations V136H, F144Q, and L146T was constructed as previously described.
(§2) This study was carried out in strict accordance with the Australian Code of Practice for the Care and Use of Animals for Scientific Purposes. The protocol for this specific study was approved by the Animal Ethics Committee of the University of Sydney (Protocol number: 2013/5915). All surgical procedures were carried out in under anesthesia induced by immersion in a tricaine solution to ameliorate suffering. […] Mature female Xenopus laevis frogs were anaesthetised with 0.17% tricaine (buffered with 0.06% sodium bicarbonate) for 15 minutes, after which the loss of righting reflex was confirmed before transferring on to ice where surgeries were performed. A small (1–2 cm) abdominal incision was made through both the skin and muscle layer with surgical knives. Ovary lobes were removed with a pair of forceps, and kept in oocyte releasing 2 (OR2) buffer (82.5 mM NaCl, 2 mM KCl, 1 mM MgCl2, 5 mM HEPES hemisodium; pH 7.4). The skin and muscle layer were sutured separately, and frogs were allowed to recover for six months before they were reselected for surgeries. A total of five recoverable surgeries with 6–12 months recovery periods between surgeries were performed on each frog to reduce the adverse effects of Xenopus transportation into Australia, as approved by the Animal Ethics Committee of the University of Sydney (Protocol number: 2013/5915) before a terminal surgery was performed, in which a lethal dose of tricaine (0.5%) was used. Briefly, lobes from ovaries of female adult X. laevis were removed and defolliculated to obtain isolated oocytes. Oocytes were injected with a total of ∼25 ng of cRNA encoding human WT receptor as shown earlier to express 3α4:2β2 and 2α4:3β2 [17], and incubated for 2–5 days at 15–18°C.
(§3) Oocytes were subjected to two-electrode voltage-clamp electrophysiological testing using a custom-built system where solutions were applied directly to the oocytes via a glass capillary tube placed in the vicinity of the cell. This ensured a solution exchange rate faster than two seconds. Ligand was applied for 30 sec and peak current amplitudes were measured. To minimise the effects of long desensitized states, the number of applications of ligand at each oocyte was minimized rather than performing full concentration-response curves on individual oocytes.
(§4) Concentration–response curves for Sazetidine-A and TC-2559 were fitted using GraphPad Prism 6 to a monophasic Hill equation with Hill Slope of 1: I=Imax(1/1+(EC50/A)) Where Imax is the maximum current, EC50 is the concentration that produces the half-maximal response and [A] is the concentration of ligand.
Concentration–response curves for ACh were fitted using GraphPad Prism 6 to a biphasic Hill equation with Hill slopes of 1: I=Imax*((Frac1/1+(EC50(1)/[A]))+(Frac2/1+(EC50(2)/[A]))) Where Frac1 and Frac2 are the fractions and EC50(1) and EC50(2) are the half-maximal concentrations of high and low-sensitivity phases of the concentration-response curves, respectively.
Ideally, single-channel recordings would be used to estimate the Po,max values; however this is technically highly challenging for α4β2 nAChRs due to channel rundown and desensitization. To overcome this, an alternate method utilizing co-application of ACh and NS206, a positive allosteric modulator (PAM), was used to estimate the maximum open probability (Est. Po,max) at 3α4:2β2 receptors. […] We have assumed that when both the positive allosteric modulator and native ligand ACh are bound, the probability of the receptor being opened is approaching one, and was previously successfully used for other members of LGICs.

[3] = target: T1, 3α4:2β2 nAChR; experiment: Linear kinetic models (Model 1, Model 2) of 3α4:2β2 receptor activation; details: for Constant multiplier C (CE / CF): from change in EC50 and Po,max when NS9283 (10 μM) applied in addition to the agonist
Description: To determine how binding at the α4-α4 site alters receptor transitions during activation, two simple linear kinetic models were used to describe receptor activation when two α4-β2 binding sites are occupied. For simplicity the binding of two ligands at α4-β2 sites is combined into a single step. The first model (Model 1) is a three-step model designed to determine whether the third ligand alters: (i) the binding affinity of ligands at the α4-β2 site (cooperativity); (ii) the transitions between closed and open states (gating) or (iii) the transitions between open and a distinct closed state in the presence of ligand (desensitization). The second model (Model 2) expanded the gating transitions to investigate whether a pre-activation (flipping) step is altered. We then determined which equilibrium constant was principally modulated in these models when NS9283 bound to the α4-α4 site potentiated the Saz-A or TC-2559 responses.
The open probability for the first model is given by (Fig 4A): PoCtrl=E.[A]/K+[A](1+E+E.D) (1) Where E is the gating constant, [A] is the agonist concentration, K is the dissociation constant of Saz-A or TC-2559, and D is the desensitizing constant. By rearranging Eq 1 to isolate [A]: PoCtrl=E/1+E+E.D/1+K/[A].(1+E+E.D) (2)
The open probability curve will fit to a Hill equation with a slope coefficient of one, since the ligand binding steps have been simplified by aggregating into a single transition. It follows from Eq 2 that the maximum open probability (when [A] approaches infinity) is given by: Po,maxCtrl=E/1+E+E.D (3) and the half-maximum effective concentration is: EC50Ctrl=K/1+E+E.D (4) It is apparent from Eq 3 that to determine the equilibrium constants for this kinetic model, the open probability (Po) of the receptor must be estimated by normalizing to the responses to ACh and NS206, rather than normalizing to the response of a saturating concentration of ACh.
The open probability in the presence of NS9283 ( Po.maxNS ; the superscript denotes when NS9283 is co-applied) and half-maximum effective concentration ( EC50NS ) can be described by substituting E with CE.E in Eqs 3 and 4 respectively. The value of CE can then be calculated from the ratios of the EC50 values and the maximum open probabilities in control and when potentiated by NS9283, as follows: EC50ctrl/Po,maxctrl=K/E (5) EC50NS/Po,maxNS=K/CE.E (6) CE=Po,maxNS/Po,maxctrl×EC50ctrl/EC50NS (7)
As NS9283 binds selectively to the α4-α4 site, we assumed that it has the same multiplier effect; regardless of which partial agonist is bound at the α4-β2 site. […] Equilibrium constants were then calculated using the following equations. Rearranging Eq 3: 1/Po.maxCtrl−1=1+D.E/E (8)
Rearranging to give D. D=CE(1/Po,maxNS−1)−(1/Po,maxctrl−1)/CE−1 (11)
Rearranging Eq 3 to give E. E=Po,maxctrl/(1−Po,maxctrl−D.Po,maxctrl) (12)
Rearranging Eqs 5 and 6 to give K K=E.EC50ctrl/Po,maxctrl=CE.E.EC50NS/Po,maxNS (13)
The open probability for this model is given by the following: Po=E.F.[A]/K+[A](1+F+E.F) (17)
Where K is the dissociation constant, F is the pre-activating equilibrium constant and E is the gating constant. It also follows that the maximum open probability is given by: Po,max=E.F/1+F+E.F (18)
Thus, both F and E will have an influence on the observed macroscopic efficacy. The half-maximum effective concentration is: EC50=K/1+F+E.F (19)
We investigated the possibility that NS9283 increases the pre-activation constant, F, by a factor, CF, in Model 2 (Fig 5B; Scheme 2).
By subtracting Eq 21 from Eq 22 and re-arranging in terms of E: E=CF−1/CF(1/Po,maxNS−1)−(1/Po,maxctrl−1) (23)
The value of E can then be calculated using Eq 23.

[4] = test system: T2, 3α4:2β2^HQT nAChR (β2 V136H, F144Q, L146T); experiment: Two-electrode voltage-clamp electrophysiology in Xenopus oocytes, mutated 3α4:2β2^HQT receptor; type: cell-based, human; details: for I/I1mM ACh: 3α4:2β2^HQT; for Activation of 3α4:2β2^HQT mutant receptors: receptor with three α4-α4-like interfaces
T2 construct: expressed in transfected cells; host or cells: Xenopus laevis oocytes injected with cRNA
Description: as §1, §2, §3
Nevertheless, a contribution to Saz-A and TC-2559 activation from binding at the α4-α4 interface cannot be excluded from these experiments. Therefore, Saz-A and TC-2559 were applied to mutated 3α4:2β2^HQT receptors where the α4-β2 binding site is abolished. […]

[5] = target: T3, 2α4:3β2 nAChR (Homo sapiens, UniProt P17787+P43681); experiment: Two-electrode voltage-clamp electrophysiology in Xenopus oocytes, WT 2α4:3β2 receptor; type: cell-based; details: for Agonist type: 2α4:3β2, relative to saturating ACh (1 mM)
T3 construct: expressed in transfected cells; host or cells: Xenopus laevis oocytes injected with cRNA (α4:β2 ratio 1:4)
T3 sequence (P43681 29-627 limits assumed): as the sequence (P43681 29-627 limits assumed) above
T3 sequence (P17787 26-502): as the sequence (P17787 26-502) above
Description: as §1, §2, §3, §4

[6] = read-out: K (binding equilibrium constant), Model-1, Model 1, 3α4:2β2
[7] = read-out: K (binding equilibrium constant), Model-2, Model 2, 3α4:2β2
[8] = 3α4:2β2, co-applied with NS9283 (10 μM)

SMILES	Est Pomax ([2]; 3α4:2β2, ligand alone)	I/I1mM ACh [4]	Activation of 3α4:2β2^HQT mutant receptors [4]	D (desensitized equilibrium constant), Model-1 ([3]; Model 1, 3α4:2β2)	E (gating equilibrium constant), Model-1 ([3]; Model 1, 3α4:2β2)	E (gating equilibrium constant), Model-2 ([3]; Model 2, 3α4:2β2)	F (flipping equilibrium constant), Model-2 ([3]; Model 2, 3α4:2β2)	Constant multiplier C (CE / CF) [3]	Kd [3, 6] [nM]	Kd [3, 7] [nM]	I/I1mM ACh (maximum response normalized to 1 mM ACh) ([5]; 2α4:3β2, ligand alone) [%]	Agonist type [5]	Decrease of EC50 value by co-application of NS9283 [2] [fold]	Increase of maximum response by co-application of NS9283 [2] [fold]	Est Pomax [2, 8]	I/I1mM ACh (maximum response normalized to 1 mM ACh) ([2]; 3α4:2β2, ligand alone) [%]	Agonist type [2]	other results
CC(=O)OCC[N+](C)(C)C [ACh, acetylcholine]	51 ± 5%																	Potency of α4-α4 binding site relative to α4-β2 binding site (less potent) [1]: ~ 100 fold
N#Cc1cccc(-c2nc(-c3cccnc3)no2)c1 [NS9283]																		Constant multiplier C (CE / CF), averaged over Saz-A and TC-2559 ([3]; NS9283 potentiation of Saz-A and TC-2559 activation, averaged): 8.94
OCCCCC#Cc1cncc(OC[C@@H]2CCN2)c1 [Saz-A, Sazetidine-A]	9.1% and 9 ± 0.7%	0* %	do not activate; also recorded: Neither Saz-A or TC-2559 activated	0.50	0.10	1.99	0.05	8.7 and 8.75	27	27	108 ± 6	full agonist	2	4.4	39% and 39 ± 1.5%	18 ± 1.4	partial agonists	EC50 ([5]; 2α4:3β2, ligand alone, Hill co-efficient of one): 10 nM; EC50 ([2]; 3α4:2β2, ligand alone, Hill co-efficient of one): 23 nM
CCOc1cncc(/C=C/CCNC)c1 [TC-2559]	20% and 20 ± 2%	0* %	do not activate; also recorded: Neither Saz-A or TC-2559 activated	0.28	0.27	3.59	0.08	9.2 and 9.15	833	836	330 ± 10	super agonist	3.1	2.9	59% and 59 ± 1.5%	41 ±4	partial agonists	Difference of EC50 values between 3α4:2β2 and 2α4:3β2 receptors ([2]; 3α4:2β2 vs 2α4:3β2): 5 fold
